Patent US20140058103A1, “Inhibitors of PI3K-Delta and Methods of Their Use and Manufacture” (Exelixis, Inc., priority 2010, published 2014)

Target: PI3K delta (Homo sapiens, UniProt O00329)
Assay: Luciferase-coupled chemiluminescence kinase assay (ATP consumption, KinaseGlo)
Format: biochemical
Procedure, shortened: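 Compound, kinase and ATP (≤ KM) reacted 2 h at ambient temperature, then remaining ATP quantified with luciferase-luciferin (KinaseGlo) luminescence as percent consumed.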

Sequence of PI3K delta (O00329 whole entry): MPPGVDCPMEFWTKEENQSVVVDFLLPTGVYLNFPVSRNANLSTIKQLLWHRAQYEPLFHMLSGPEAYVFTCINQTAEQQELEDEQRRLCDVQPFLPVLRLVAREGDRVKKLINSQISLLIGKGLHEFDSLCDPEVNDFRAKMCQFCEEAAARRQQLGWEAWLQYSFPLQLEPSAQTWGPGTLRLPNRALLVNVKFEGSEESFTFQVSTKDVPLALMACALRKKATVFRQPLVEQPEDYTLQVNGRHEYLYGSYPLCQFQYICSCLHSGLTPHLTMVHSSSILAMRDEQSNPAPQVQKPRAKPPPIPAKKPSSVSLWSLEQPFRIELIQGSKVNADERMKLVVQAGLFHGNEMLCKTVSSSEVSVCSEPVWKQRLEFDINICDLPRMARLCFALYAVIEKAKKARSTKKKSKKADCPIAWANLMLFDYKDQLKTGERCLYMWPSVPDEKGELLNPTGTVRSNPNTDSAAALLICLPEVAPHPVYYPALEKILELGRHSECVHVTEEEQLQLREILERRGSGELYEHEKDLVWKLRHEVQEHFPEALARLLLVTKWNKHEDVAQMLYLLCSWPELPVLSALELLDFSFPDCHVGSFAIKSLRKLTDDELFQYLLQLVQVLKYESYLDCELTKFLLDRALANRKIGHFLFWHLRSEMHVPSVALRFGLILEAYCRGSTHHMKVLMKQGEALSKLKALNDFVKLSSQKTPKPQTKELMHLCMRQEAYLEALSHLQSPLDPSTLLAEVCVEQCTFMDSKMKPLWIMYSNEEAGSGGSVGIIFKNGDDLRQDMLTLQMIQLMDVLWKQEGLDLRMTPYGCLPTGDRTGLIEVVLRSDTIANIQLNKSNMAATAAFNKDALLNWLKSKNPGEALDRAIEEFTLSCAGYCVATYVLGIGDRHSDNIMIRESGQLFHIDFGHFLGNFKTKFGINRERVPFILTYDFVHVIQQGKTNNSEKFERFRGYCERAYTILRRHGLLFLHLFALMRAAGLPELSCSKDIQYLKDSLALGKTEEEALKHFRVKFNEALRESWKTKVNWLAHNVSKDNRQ
Sequence of PI3K delta (P27986 whole entry partner): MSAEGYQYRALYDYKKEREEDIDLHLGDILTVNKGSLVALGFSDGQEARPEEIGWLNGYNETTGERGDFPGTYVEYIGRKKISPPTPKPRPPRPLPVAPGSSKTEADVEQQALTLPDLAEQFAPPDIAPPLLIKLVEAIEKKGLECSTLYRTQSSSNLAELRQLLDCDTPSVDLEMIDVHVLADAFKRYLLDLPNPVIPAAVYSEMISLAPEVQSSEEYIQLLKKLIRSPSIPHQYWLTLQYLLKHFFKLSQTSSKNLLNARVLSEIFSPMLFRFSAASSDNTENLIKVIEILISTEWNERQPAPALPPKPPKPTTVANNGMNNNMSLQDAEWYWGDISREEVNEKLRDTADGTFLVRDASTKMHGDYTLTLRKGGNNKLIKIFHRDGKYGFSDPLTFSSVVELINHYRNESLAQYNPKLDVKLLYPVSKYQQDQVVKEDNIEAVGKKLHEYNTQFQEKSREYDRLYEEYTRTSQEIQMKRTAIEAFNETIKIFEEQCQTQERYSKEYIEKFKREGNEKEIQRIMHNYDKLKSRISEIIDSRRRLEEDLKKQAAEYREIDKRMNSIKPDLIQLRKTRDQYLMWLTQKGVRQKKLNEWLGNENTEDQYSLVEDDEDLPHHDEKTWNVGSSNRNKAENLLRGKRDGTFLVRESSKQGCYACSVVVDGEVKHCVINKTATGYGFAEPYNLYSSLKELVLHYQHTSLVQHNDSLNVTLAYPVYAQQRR

| Structure (SMILES) | IC50 [nM] |
| --- | --- |
| CCn1c(C(=O)NCCC(C)C)nc2c(N3CCC(n4c(=O)[nH]c5ccccc54)CC3)ncnc21 [Compound 198, 9-ethyl-N-(3-methylbutyl)-6-[4-(2-oxo-2,3-dihydro-1H-benzimidazol-1-yl)piperidin-1-yl]-9H-purine-8-carboxamide] | 50 to 250 |
| CC(C)Cc1nnc(-c2nc3c(N4CCC(n5c(=O)[nH]c6ccccc65)CC4)ncnc3n2C)o1 [Compound 204, 1-(1-{9-methyl-8-[5-(2-methylpropyl)-1,3,4-oxadiazol-2-yl]-9H-purin-6-yl}piperidin-4-yl)-1,3-dihydro-2H-benzimidazol-2-one] | < 50 |
| Cn1c(C(=O)NCC2CC2)nc2c(N3CCC(n4c(=O)[nH]c5cc(F)ccc54)CC3)ncnc21 [Compound 205, N-(cyclopropylmethyl)-6-[4-(5-fluoro-2-oxo-2,3-dihydro-1H-benzimidazol-1-yl)piperidin-1-yl]-9-methyl-9H-purine-8-carboxamide] | 50 to 250 |
| Cc1ccc2[nH]c(=O)n(C3CCN(c4ncnc5c4nc(C(=O)NCC4CC4)n5C)CC3)c2c1 [Compound 206, N-(cyclopropylmethyl)-9-methyl-6-[4-(6-methyl-2-oxo-2,3-dihydro-1H-benzimidazol-1-yl)piperidin-1-yl]-9H-purine-8-carboxamide] | 250 to 500 |
| CCn1c(C(=O)NCc2nnc(C)o2)nc2c(N3CCC4(CC3)C(=O)Nc3ccccc34)ncnc21 [Compound 207, 9-ethyl-N-[(5-methyl-1,3,4-oxadiazol-2-yl)methyl]-6-(2-oxo-1,2-dihydro-1′H-spiro[indole-3,4′-piperidin]-1′-yl)-9H-purine-8-carboxamide] | 250 to 500 |
| CCn1c(C(=O)NC2COC2)nc2c(N3CCC(n4c(=O)[nH]c5ccccc54)CC3)ncnc21 [Compound 208, 9-ethyl-N-oxetan-3-yl-6-[4-(2-oxo-2,3-dihydro-1H-benzimidazol-1-yl)piperidin-1-yl]-9H-purine-8-carboxamide] | < 50 |
| CCn1c(-c2nnc(C(C)C)o2)nc2c(N3CCC4(CC3)C(=O)Nc3ccccc34)ncnc21 [Compound 209, 1′-{9-ethyl-8-[5-(1-methylethyl)-1,3,4-oxadiazol-2-yl]-9H-purin-6-yl}spiro[indole-3,4′-piperidin]-2(1H)-one] | < 50 |
| CCn1c(-c2nnc(C3CC3)o2)nc2c(N3CCC4(CC3)C(=O)Nc3ccccc34)ncnc21 [Compound 210, 1′-[8-(5-cyclopropyl-1,3,4-oxadiazol-2-yl)-9-ethyl-9H-purin-6-yl]spiro[indole-3,4′-piperidin]-2(1H)-one] | < 50 |
| Cn1c(C(=O)NCC2CC2)nc2c(N3CCC4(CC3)C(=O)Nc3c(Cl)cccc34)ncnc21 [Compound 211, 6-(7-chloro-2-oxo-1,2-dihydro-1′H-spiro[indole-3,4′-piperidin]-1′-yl)-N-(cyclopropylmethyl)-9-methyl-9H-purine-8-carboxamide] | < 50 |
| CCn1c(C(=O)NCC2CCC2)nc2c(N3CCC4(CC3)C(=O)Nc3ccccc34)ncnc21 [Compound 212, N-(cyclobutylmethyl)-9-ethyl-6-(2-oxo-1,2-dihydro-1′H-spiro[indole-3,4′-piperidin]-1′-yl)-9H-purine-8-carboxamide] | < 50 |
| CCn1c(C(=O)N2CC[C@@H](F)C2)nc2c(N3CCC4(CC3)C(=O)Nc3ccccc34)ncnc21 [Compound 213] | < 50 |
| CCn1c(C(=O)NC(C)C2CC2)nc2c(N3CCC4(CC3)C(=O)Nc3ccccc34)ncnc21 (stereo not shown) [Compound 214, N-(1-cyclopropylethyl)-9-ethyl-6-(2-oxo-1,2-dihydro-1′H-spiro[indole-3,4′-piperidin]-1′-yl)-9H-purine-8-carboxamide] | < 50 |
| CCn1c(C(=O)NCC2(O)CC2)nc2c(N3CCC4(CC3)C(=O)Nc3ccccc34)ncnc21 [Compound 215, 9-ethyl-N-[(1-hydroxycyclopropyl)methyl]-6-(2-oxo-1,2-dihydro-1′H-spiro[indole-3,4′-piperidin]-1′-yl)-9H-purine-8-carboxamide] | < 50 |
| CCn1c(C(=O)N2CC(F)(F)C2)nc2c(N3CCC4(CC3)C(=O)Nc3ccccc34)ncnc21 [Compound 216, 1′-{8-[(3,3-difluoroazetidin-1-yl)carbonyl]-9-ethyl-9H-purin-6-yl}spiro[indole-3,4′-piperidin]-2(1H)-one] | < 50 |
| CCn1c(C(=O)NCC(C)(C)C)nc2c(N3CCC4(CC3)C(=O)Nc3ccccc34)ncnc21 [Compound 217, N-(2,2-dimethylpropyl)-9-ethyl-6-(2-oxo-1,2-dihydro-1′H-spiro[indole-3,4′-piperidin]-1′-yl)-9H-purine-8-carboxamide] | < 50 |
| CCn1c(C(=O)N2CCC(F)(F)C2)nc2c(N3CCC4(CC3)C(=O)Nc3ccccc34)ncnc21 [Compound 218, 1′-{8-[(3,3-difluoropyrrolidin-1-yl)carbonyl]-9-ethyl-9H-purin-6-yl}spiro[indole-3,4′-piperidin]-2(1H)-one] | < 50 |
| CCNC(=O)c1nc2c(N3CCC4(CC3)C(=O)Nc3ccccc34)ncnc2n1CC [Compound 219, N,9-diethyl-6-(2-oxo-1,2-dihydro-1′H-spiro[indole-3,4′-piperidin]-1′-yl)-9H-purine-8-carboxamide] | < 50 |
| CCn1c(C(=O)NC2CCC2)nc2c(N3CCC4(CC3)C(=O)Nc3ccccc34)ncnc21 [Compound 221, N-cyclobutyl-9-ethyl-6-(2-oxo-1,2-dihydro-1′H-spiro[indole-3,4′-piperidin]-1′-yl)-9H-purine-8-carboxamide] | < 50 |

Now from value to compound:

| IC50 [nM] | Structure (SMILES) |
| --- | --- |
| < 50 | CCCNC(=O)c1nc2c(N3CCC4(CC3)C(=O)Nc3ccccc34)ncnc2n1CC [Compound 220, 9-ethyl-6-(2-oxo-1,2-dihydro-1′H-spiro[indole-3,4′-piperidin]-1′-yl)-N-propyl-9H-purine-8-carboxamide] |
| 50 to 250 | CCn1c(C(=O)NCCCCO)nc2c(N3CCC4(CC3)C(=O)Nc3ccccc34)ncnc21 [Compound 222, 9-ethyl-N-(4-hydroxybutyl)-6-(2-oxo-1,2-dihydro-1′H-spiro[indole-3,4′-piperidin]-1′-yl)-9H-purine-8-carboxamide] |
| < 50 | CCn1c(C(=O)NC(C)C)nc2c(N3CCC4(CC3)C(=O)Nc3ccccc34)ncnc21 [Compound 223, 9-ethyl-N-(1-methylethyl)-6-(2-oxo-1,2-dihydro-1′H-spiro[indole-3,4′-piperidin]-1′-yl)-9H-purine-8-carboxamide] |
| < 50 | CCn1c(C(=O)NCC(C)(C)O)nc2c(N3CCC4(CC3)C(=O)Nc3ccccc34)ncnc21 [Compound 224, 9-ethyl-N-(2-hydroxy-2-methylpropyl)-6-(2-oxo-1,2-dihydro-1′H-spiro[indole-3,4′-piperidin]-1′-yl)-9H-purine-8-carboxamide] |
| 50 to 250 | CCn1c(C(=O)NCCC(C)C)nc2c(N3CCC4(CC3)C(=O)Nc3ccccc34)ncnc21 [Compound 225, 9-ethyl-N-(3-methylbutyl)-6-(2-oxo-1,2-dihydro-1′H-spiro[indole-3,4′-piperidin]-1′-yl)-9H-purine-8-carboxamide] |
| < 50 | CCn1c(C(=O)NC2COC2)nc2c(N3CCC4(CC3)C(=O)Nc3ccccc34)ncnc21 [Compound 226, 9-ethyl-N-oxetan-3-yl-6-(2-oxo-1,2-dihydro-1′H-spiro[indole-3,4′-piperidin]-1′-yl)-9H-purine-8-carboxamide] |
| < 50 | CCCc1nnc(-c2nc3c(N4CCC5(CC4)C(=O)Nc4ccccc45)ncnc3n2CC)o1 [Compound 227, 1′-[9-ethyl-8-(5-propyl-1,3,4-oxadiazol-2-yl)-9H-purin-6-yl]spiro[indole-3,4′-piperidin]-2(1H)-one] |
| 500 to 1500 | Cn1c(C(=O)NCC2CC2)nc2c(N3CCC(n4c(=O)[nH]c5cc(Cl)ccc54)CC3)ncnc21 [Compound 228, 6-[4-(5-chloro-2-oxo-2,3-dihydro-1H-benzimidazol-1-yl)piperidin-1-yl]-N-(cyclopropylmethyl)-9-methyl-9H-purine-8-carboxamide] |
| 500 to 1500 | Cn1c(C(=O)NCC2CC2)nc2c(N3CCC(n4c(=O)[nH]c5ccc(Cl)cc54)CC3)ncnc21 [Compound 229, 6-[4-(6-chloro-2-oxo-2,3-dihydro-1H-benzimidazol-1-yl)piperidin-1-yl]-N-(cyclopropylmethyl)-9-methyl-9H-purine-8-carboxamide] |
| 50 to 250 | Cn1c(C(=O)NCC2CC2)nc2c(N3CCC(n4c(=O)[nH]c5c(Cl)cccc54)CC3)ncnc21 [Compound 230, 6-[4-(4-chloro-2-oxo-2,3-dihydro-1H-benzimidazol-1-yl)piperidin-1-yl]-N-(cyclopropylmethyl)-9-methyl-9H-purine-8-carboxamide] |
| < 50 | Cn1c(-c2cnn(CC3CCC3)c2)nc2c(N3CCC(n4c(=O)[nH]c5ccccc54)CC3)ncnc21 [Compound 231] |
| < 50 | CCCCc1nnc(-c2nc3c(N4CCC(n5c(=O)[nH]c6ccccc65)CC4)ncnc3n2C)o1 [Compound 232, 1-(1-[8-(5-butyl-1,3,4-oxadiazol-2-yl)-9-methyl-9H-purin-6-yl]piperidin-4-yl)-1,3-dihydro-2H-benzimidazol-2-one] |
| 50 to 250 | CC(C)CCn1cc(-c2nc3c(N4CCC(n5c(=O)[nH]c6ccccc65)CC4)ncnc3n2C)cn1 [Compound 233, 1-(1-{9-methyl-8-[1-(3-methylbutyl)-1H-pyrazol-4-yl]-9H-purin-6-yl}piperidin-4-yl)-1,3-dihydro-2H-benzimidazol-2-one] |
| < 50 | CCCn1cc(-c2nc3c(N4CCC5(CC4)C(=O)Nc4ccccc45)ncnc3n2C)cn1 [Compound 234, 1′-[9-methyl-8-(1-propyl-1H-pyrazol-4-yl)-9H-purin-6-yl]spiro[indole-3,4′-piperidin]-2(1H)-one] |
| 500 to 1500 | Cn1c(C(=O)NCC2CC2)nc2c(N3CC[C@H](c4ccccc4)[C@@H](O)C3)ncnc21 [Compound 235, N-(cyclopropylmethyl)-6-[(3R,4R)-3-hydroxy-4-phenylpiperidin-1-yl]-9-methyl-9H-purine-8-carboxamide] |
| < 50 | CCc1nnc(-c2nc3c(N4CCC5(CC4)C(=O)Nc4ccccc45)ncnc3n2CC)o1 [Compound 236, 1′-[9-ethyl-8-(5-ethyl-1,3,4-oxadiazol-2-yl)-9H-purin-6-yl]spiro[indole-3,4′-piperidin]-2(1H)-one] |
